Results as given in patent publication US5395922A, “Yeast processing system” (Novo Nordisk A/S, priority 1989, dated 1995).

Tests used:
Assay type in all cases: biochemical
trypsin [1] = experiment: Trypsin inhibitor specific activity, spectrophotometric assay (method of Kassel); details: comparison with native aprotinin
Protocol: Yeast strain KFN-837 was grown on YPD medium (1% yeast extract, 2% peptone (from Difco Laboratories), and 6% glucose). A 200 ml culture of the strain was shaken at 250 rpm at 30° C. for 3 days to an O.D. at 600 nm of 20 (Dry yeast biomass 18.8 g/liter). After centrifugation the supernatant was analyzed by FPLC ion exchange chromatography. The yeast supernatant was filtered through a 0.22 μm Millex GV filter unit and 1 ml was applied on a MonoS cation exchange column (0.5×5 cm) equilibrated with 20 mM Bicine, pH=8.7. After wash with equilibration buffer the column was eluted with a linear NaCl gradient (0-1M) in equilibration buffer. Trypsin inhibitor activity was quantified in the eluted fractions by spectrophotometric assay (Kassel, B., Methods Enzymol. 19 (1970), 844-852) and furthermore by integration of absorption at 280 nm from [formula] The yield was […] of Glu-Leu-aprotinin(1-58).
The trypsin and plasmin inhibition by Glu-Leu-aprotinin (1-58) in terms of titration curves determined as described below were indistinguishable from that of bovine pancreatic aprotinin (Aprotinin Novo). After incubation of the enzyme with aprotinin or its analogues for 30 minutes, 0.6 mM S 2251 (KabiVitrum) was added and the activity measured as the rate of nitroaniline production. The activity as a function of aprotinin concentration is plotted in FIG. 5A and 5B. […]

trypsin [2] = experiment: Trypsin inhibition titration curves (S 2251 substrate, rate of nitroaniline production); details: 30 minutes incubation of enzyme with inhibitor, 0.6 mM S 2251; FIG. 5A
Protocol: (§1) The trypsin and plasmin inhibition by Glu-Leu-aprotinin (1-58) in terms of titration curves determined as described below were indistinguishable from that of bovine pancreatic aprotinin (Aprotinin Novo). After incubation of the enzyme with aprotinin or its analogues for 30 minutes, 0.6 mM S 2251 (KabiVitrum) was added and the activity measured as the rate of nitroaniline production. The activity as a function of aprotinin concentration is plotted in FIG. 5A and 5B. Complete inhibition of both enzymes with all three inhibitors was observed.

plasmin = plasmin (Homo sapiens, UniProt P00747); experiment: Plasmin inhibition titration curves (S 2251 substrate, rate of nitroaniline production); details: 30 minutes incubation of enzyme with inhibitor, 0.6 mM S 2251; FIG. 5B
Sequence of plasmin (P00747 581-810 limits assumed, species assumed): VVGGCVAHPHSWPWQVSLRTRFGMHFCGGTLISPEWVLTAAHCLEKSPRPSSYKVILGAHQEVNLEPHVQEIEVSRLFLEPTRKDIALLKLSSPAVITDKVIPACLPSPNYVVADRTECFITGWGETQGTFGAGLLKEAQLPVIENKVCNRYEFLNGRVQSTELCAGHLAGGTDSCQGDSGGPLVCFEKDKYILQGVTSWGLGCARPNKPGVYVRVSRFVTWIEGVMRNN
Sequence of plasmin (P00747 97-580 partner limits assumed, species assumed): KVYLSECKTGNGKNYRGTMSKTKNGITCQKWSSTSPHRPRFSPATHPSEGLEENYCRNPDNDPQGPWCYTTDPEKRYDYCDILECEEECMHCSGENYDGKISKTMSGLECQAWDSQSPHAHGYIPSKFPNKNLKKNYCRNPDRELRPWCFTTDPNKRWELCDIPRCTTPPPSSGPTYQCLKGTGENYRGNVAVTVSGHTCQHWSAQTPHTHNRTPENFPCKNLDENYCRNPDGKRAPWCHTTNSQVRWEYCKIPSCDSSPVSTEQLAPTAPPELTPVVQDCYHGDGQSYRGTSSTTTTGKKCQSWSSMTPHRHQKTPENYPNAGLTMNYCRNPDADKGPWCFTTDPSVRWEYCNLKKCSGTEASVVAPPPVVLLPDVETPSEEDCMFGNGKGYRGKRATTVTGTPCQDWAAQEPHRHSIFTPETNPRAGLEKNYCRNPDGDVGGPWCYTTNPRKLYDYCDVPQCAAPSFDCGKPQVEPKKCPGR
Protocol: as §1

Row | plasmin inhibition in terms of titration curves, compared with bovine pancreatic aprotinin (Aprotinin Novo) (plasmin) | Substance | specific (inhibitory) activity against trypsin compared with native / bovine pancreatic aprotinin (trypsin [1]) | trypsin inhibition in terms of titration curves, compared with bovine pancreatic aprotinin (Aprotinin Novo) (trypsin [2])
1 |  | aprotinin(1-58) | indistinguishable | 
2 | indistinguishable | Glu-Leu-Asp-Leu-aprotinin(1-58) |  | indistinguishable
3 | indistinguishable | Glu-Leu-aprotinin(1-58) | identical within the experimental error | indistinguishable
